Data published in patent publication US11572362B2, “Pyrrolo[1,2-b]pyridazine derivatives” (Gilead Sciences, Inc., priority 2018, dated 2023).
pEC50, pIC50: −log10 of the molar value.

Columns and labels:
TNFα = assay: IRAK4 Monocyte TNFα Cell Based Assay; settings: Monocyte; cryopreserved human monocytes, 50 pg/ml LPS, compound 1 hour pre-treatment, 4 hours stimulation, TNFα by TR-FRET
Method: IRAK4 Monocyte TNFα Cell Based Assay Procedure:
The cell suspension was then plated at a density of 5,000 cells/well onto black 384 well Greiner clear bottom plates. Plates were pre-spotted with test compounds and serially diluted in DMSO where 40 nL/well were delivered using the Echo 550 acoustic liquid dispenser (Labcyte®) for a final DMSO concentration of 0.1%. Plated cells were treated with compound for 1 hour at 37° C. Cells were then stimulated with 50 pg/ml of LPS (Sigma) excluding outside columns of plate used for unstimulated cell control wells. Cells were incubated for an additional 4 hours at 37° C. Cells were then spun out of the media and 5 μl of sample were taken and analyzed for total TNFα content using the TR-FRET Human TNFα detection system (CisBio). This system utilizes two labeled antibodies (cryptate and XL665) that bind to two different epitopes of the TNFα molecule and produce FRET signal proportional to the concentration of TNFα in the sample. Detection antibodies are mixed 50:50 and 5 μL were dispensed into each well. Plates were covered with clear seals and incubated at room temp overnight. The following morning plates were read using an Envision 2103 Multilabeled reader (PerkinElmer) with excitation/emission/FRET emission at 340 nm/615 nm/665 nm, respectively. Fluorescence intensities at 615 nm and 665 nm emission wavelengths were expressed as a ratio (665 nm/615 nm). Percent of control was calculated as follows: % Control=100×(RatioSample−Ratio0% Stimulation)/(Ratio100% Stimulation−Ratio0% Stimulation)
where unstimulated cells (0% stimulation) were the negative control and stimulated cells (100% stimulation) were used as the positive control.

IRAK4 = IRAK4 (Homo sapiens (Human), UniProt Q9NWZ3); assay: IRAK4 Biochemical Assay (TR-FRET/HTRF); settings: IRAK4 enzyme 0.75 nM, 500 μM ATP, 2 μM STK1 peptide, 120 min
Method: IRAK4 Biochemical Assay Procedure:
IRAK4 enzyme (Carna Biosciences, Chuo-ku, Kobe, Japan) activity was measured by detecting phosphorylated peptide substrate formation using an antibody against the phosphorylated peptide substrate. This is a time-resolved fluorescence resonance energy transfer (TR-FRET) immunoassay, based on the STK1 KinEASE Assay (Cisbio, Bedford, Mass.). The assay was designed as a simple two-step, endpoint assay (a 5 μl enzyme reaction followed by 5 μl stop and detect Solution) performed in ProxiPlate-384 Plus plates (Perkin Elmer, Waltham, Mass.). Staurosporine, a non-selective kinase inhibitor was used as a positive control. Compounds diluted in DMSO were spotted into 384 well plates using a Labcyte® Echo 550 Liquid Handling System prior to addition of IRAK4 enzyme and peptide substrate. Reaction solutions were delivered using a Multi-Flo (Bio-Tek Instruments). The enzyme and peptide solution was incubated with compound for 15 minutes at room temp before the reaction was initiated by the addition of ATP. The standard 5 μl reaction mixture contained 500 μM ATP, 2 μM peptide (STK1 Peptide), 0.75 nM of IRAK4 in reaction buffer (50 mM HEPES, pH 7.0, 0.02% NaN3, 0.01% BSA, 0.1 mM Orthovanadate, 5 mM MgCl2, 0.025% NP-40, 1 mM DTT). After 120 min of incubation at room temperature, 5 μl of Stop and Detect Solution (1:100 Cryptate labeled anti-phosphorylated peptide antibody solution and 125 nM Tracer in a 50 mM HEPES pH 7.0 detection buffer containing sufficient EDTA) was added. The plate was then further incubated for 60 minutes at room temperature and read on Envision 2103 Multilabeled reader (PerkinElmer) with excitation/emission/FRET emission at 340 nm/615 nm/665 nm, respectively. Fluorescence intensities at 615 nm and 665 nm emission wavelengths were expressed as a ratio (665 nm/615 nm). Percentage of inhibition was calculated as below: % Inhibition=100×(RatioSample−Ratio0% Inhibition)/(Ratio100% Inhibition−Ratio0% Inhibition)
The 0% inhibition value comes from control wells lacking inhibitor. The 100% inhibition value comes from control wells containing a saturating amount of known inhibitor staurosporine.

Sequence of IRAK4 (Q9NWZ3 whole entry): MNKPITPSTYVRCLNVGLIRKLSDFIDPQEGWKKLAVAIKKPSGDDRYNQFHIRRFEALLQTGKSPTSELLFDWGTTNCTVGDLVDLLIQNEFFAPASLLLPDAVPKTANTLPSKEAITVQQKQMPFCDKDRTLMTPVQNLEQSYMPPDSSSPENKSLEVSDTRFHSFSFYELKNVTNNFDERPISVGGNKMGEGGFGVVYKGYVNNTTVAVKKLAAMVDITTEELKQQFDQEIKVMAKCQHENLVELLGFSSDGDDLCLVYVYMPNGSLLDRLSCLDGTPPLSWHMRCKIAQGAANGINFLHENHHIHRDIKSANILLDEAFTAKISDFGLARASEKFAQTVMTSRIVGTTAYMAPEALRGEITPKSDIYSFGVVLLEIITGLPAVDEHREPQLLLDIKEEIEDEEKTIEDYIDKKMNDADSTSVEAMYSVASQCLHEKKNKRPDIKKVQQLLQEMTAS

Structure (SMILES)	pEC50 (TNFα)	pIC50 (IRAK4)
CC(C)(O)[C@H](F)CNC(=O)c1cnc(-c2ccc3cc(C#N)cnn23)cc1N[C@H]1CC[C@H](c2cncnc2)CC1 [Compound 57, 6-(3-cyanopyrrolo[1,2-b]pyridazin-7-yl)-N-((R)-2-fluoro-3-hydroxy-3-methylbutyl)-4-(((1r,4R)-4-(pyrimidin-5-yl)cyclohexyl)amino)nicotinamide]	7.96	8.70
CC(C)(O)[C@H](F)CNC(=O)c1cnc(-c2ccc3cc(C#N)cnn23)cc1N[C@H]1CC[C@H](n2cnc(C(F)F)n2)CC1 [Compound 36, 6-(3-cyanopyrrolo[1,2-b]pyridazin-7-yl)-4-(((1r,4R)-4-(3-(difluoromethyl)-1H-1,2,4-triazol-1-yl)cyclohexyl)amino)-N-((R)-2-fluoro-3-hydroxy-3-methylbutyl)nicotinamide]	7.85	> 9.00
CC(C)(O)[C@H](F)CNC(=O)c1cnc(-c2ccc3cc(C#N)cnn23)cc1N[C@H]1CC[C@H](c2cn(C3CC3)nn2)CC1 [Compound 20, 6-(3-cyanopyrrolo[1,2-b]pyridazin-7-yl)-4-(((1r,4R)-4-(1-cyclopropyl-1H-1,2,3-triazol-4-yl)cyclohexyl)amino)-N-((R)-2-fluoro-3-hydroxy-3-methylbutyl)nicotinamide]	7.31	9.00
Cn1cc([C@H]2CC[C@H](Nc3cc(-c4ccc5cc(C#N)cnn45)ncc3C(=O)NC[C@@H](F)C(C)(C)O)CC2)nn1 [Compound 19, 6-(3-cyanopyrrolo[1,2-b]pyridazin-7-yl)-N-((R)-2-fluoro-3-hydroxy-3-methylbutyl)-4-(((1r,4R)-4-(1-methyl-1H-1,2,3-triazol-4-yl)cyclohexyl)amino)nicotinamide]	7.59	> 9.00
CC(C)(O)[C@H](F)CNC(=O)c1cnc(-c2ccc3cc(C#N)cnn23)cc1NC12CCC(c3nnc(C(F)F)o3)(CC1)OC2 [Compound 65, (R)-6-(3-cyanopyrrolo[1,2-b]pyridazin-7-yl)-4-((1-(5-(difluoromethyl)-1,3,4-oxadiazol-2-yl)-2-oxabicyclo[2.2.2]octan-4-yl)amino)-N-(2-fluoro-3-hydroxy-3-methylbutyl)nicotinamide]	7.64	9.00
CC(C)(O)[C@H](F)CNC(=O)c1cnc(-c2ccc3cc(C#N)cnn23)cc1NC1CCC(c2cnn(CC(F)(F)F)c2)CC1 (stereo partly drawn) [Compound 6, (R)-6-(3-cyanopyrrolo[1,2-b]pyridazin-7-yl)-N-(2-fluoro-3-hydroxy-3-methylbutyl)-4-((4-(1-(2,2,2-trifluoroethyl)-1H-pyrazol-4-yl)cyclohexyl)amino)nicotinamide]	7.15	
CC(C)(O)[C@H](F)CNC(=O)c1cnc(-c2ccc3cc(C#N)cnn23)cc1N[C@H]1CC[C@H](c2cnn(C(F)F)n2)CC1 [Compound 75, 6-(3-cyanopyrrolo[1,2-b]pyridazin-7-yl)-4-(((1r,4R)-4-(2-(difluoromethyl)-2H-1,2,3-triazol-4-yl)cyclohexyl)amino)-N-((R)-2-fluoro-3-hydroxy-3-methylbutyl)nicotinamide]		9.06
CC(C)(O)[C@H](F)CNC(=O)c1cnc(-c2ccc3cc(C#N)cnn23)cc1N[C@H]1CC[C@H](c2cc[nH]n2)CC1 [Compound 70, 4-(((1r,4R)-4-(1H-pyrazol-3-yl)cyclohexyl)amino)-6-(3-cyanopyrrolo[1,2-b]pyridazin-7-yl)-N-((R)-2-fluoro-3-hydroxy-3-methylbutyl)nicotinamide]		9.09
CC(C)(O)[C@H](F)CNC(=O)c1cnc(-c2ccc3cc(C#N)cnn23)cc1N[C@H]1CC[C@@H](c2cc[nH]n2)CC1 [Compound 71, 4-(((1s,4S)-4-(1H-pyrazol-3-yl)cyclohexyl)amino)-6-(3-cyanopyrrolo[1,2-b]pyridazin-7-yl)-N-((R)-2-fluoro-3-hydroxy-3-methylbutyl)nicotinamide]		8.50
